Measured values taken from patent publication US20060135588A1, “Preventive and/or therapeutic drugs for inflammatory intestinal diseases” (priority 2002, published 2006).

Assays:
Type in all cases: in vivo, Sprague-Dawley male rats
[1] = tested on: MDA and 4-HNE in the large intestinal mucosa; assay: Concentrations of MDA and 4-HNE in large intestinal mucosa of rats with DSS-induced colitis; conditions: all groups: 1, 5 and 20 mg/kg/day s.c., 8 days DSS; no significant differences among the administration groups; FIG. 4(A)
Method: (§1) The edaravone as synthesized above was dissolved in a small amount of 1 N sodium hydroxide solution. Thereafter, the pH thereof was adjusted to be around neutral.
(§2) 6-week-old Sprague-Dawley male rats (Clea Japan, Inc.) were used. According to the method described in the previous report (Araki Y. et al., Scand J Gastroentero, 35, 1060-1067, 2000), colitis was induced to develop in the rats as follows. That is to say, 4% (w/w) dextran sulfate sodium (DSS; molecular weight: 5,000; Wako Pure Chemical Industries, Ltd., Osaka) was added to a powder diet MF (Oriental Yeast Co., Ltd.). The rats were fed with the thus obtained mixed diet at an amount of 30 g/day/rat for 8 days. […]
Hyperoxidation of lipids is an important mechanism regarding tissue injury. […] Accordingly, the concentrations of MDA and 4-HNE in the large intestinal mucosa were measured, and the obtained values were used as indicators of the state of reactive oxygen species (ROS) in tissues (Matsumura N. et al., Pancreas, 22, 53-7, 2001). That is, the large intestinal mucosa was homogenized with 9 times its volume of 50 mmol/l Tris-buffer (pH 8.0) containing 0.5% Triton X-100, and the concentrations were measured using an assay kit, Lipid peroxidation assay kit (Calbiochem, La Jolla, Calif., U.S.A.). […]

[2] = tested on: Dextran sulfate sodium (DSS)-induced colitis; assay: Histological evaluation of DSS-induced colitis (damage score); conditions: 8 days DSS; for damage score vs control group: FIG. 3(A)
Method: as §1
(§3) 6-week-old Sprague-Dawley male rats (Clea Japan, Inc.) were used. According to the method described in the previous report (Araki Y. et al., Scand J Gastroentero, 35, 1060-1067, 2000), colitis was induced to develop in the rats as follows. That is to say, 4% (w/w) dextran sulfate sodium (DSS; molecular weight: 5,000; Wako Pure Chemical Industries, Ltd., Osaka) was added to a powder diet MF (Oriental Yeast Co., Ltd.). The rats were fed with the thus obtained mixed diet at an amount of 30 g/day/rat for 8 days. With regard to edaravone administration groups, from immediately after initiation of the administration of DSS, edaravone was subcutaneously injected into the back of each rat, at a dose of 1 mg/kg/day, 5 mg/kg/day, or 20 mg/kg/day, which was dividedly administered in the morning and evening. With regard to a control group, a normal saline solution was subcutaneously injected into the back of each rat in the same above manner.
The mucosa located at 5 mm from the anus side was fixed with a Carnoy's fluid for 3 hours, and was then embedded in paraffin. Thereafter, a tissue fragment with a thickness of 5 μm was prepared, followed by hematoxylin-eosin staining. Scoring of colitis was conducted in accordance with the method described in the previous report (Araki Y. et al., Scand J Gastroentero, 35, 1060-1067, 2000). Namely, the degree and size of each of the following 3 items: (i) the absence of the mucosal epithelium, (ii) deformation of crypts, and (iii) the level of infiltration of inflammatory cells, are expressed in the following point system: 0: none; 1: slight and localized; 2: moderate and localized; 3: moderate and broad; and 4: severe and broad. The total points regarding the above 3 items were summed up, and the obtained value was defined as the histological colitis score (damage score) of a rat.
The results are shown as mean±SEM. The comparison between groups was carried out by Fisher's PLSD Test. […]

[3] = tested on: myeloperoxidase activity in the large intestinal mucosa; assay: Myeloperoxidase activity in large intestinal mucosa of rats with DSS-induced colitis; conditions: 8 days DSS, FIG. 3(B)
Method: as §1, §2
Myeloperoxidase activity used as an indicator of inflammation in the large intestinal mucosa was measured by the method described in the previous report (Araki Y. et al., Clin Exp Immunol, 119, 264-269, 2000). […] The activity of the obtained homogenate was observed as a change in the absorbance at 460 nm obtained as a result of the reaction of H2O2 with o-dianisidin.
Hyperoxidation of lipids is an important mechanism regarding tissue injury. […] Accordingly, the concentrations of MDA and 4-HNE in the large intestinal mucosa were measured, and the obtained values were used as indicators of the state of reactive oxygen species (ROS) in tissues (Matsumura N. et al., Pancreas, 22, 53-7, 2001). […]

[4] = tested on: Dextran sulfate sodium (DSS)-induced colitis; assay: Evaluation of DSS-induced colitis by naked eyes (wet weight of large intestine, injured mucosa area); conditions: all groups: 1, 5 and 20 mg/kg/day s.c., 8 days of 4% DSS diet
Method: as §1, §2
8 days later, the rats were subjected to anatomy. […] Thereafter, the large intestine (the colon and the rectum) was excised, and the wet weight of the organ was measured. The degree of the injured large intestinal mucosa was evaluated by naked eyes according to the method described in the previous report (Araki Y. et al., Scand J Gastroentero, 35, 1060-1067, 2000). That is, the areas of portions, on which a change in the color tone of the mucosa (redness), an attachment of blood clots, a collapse of mucosal wall area, edema, or erosion were observed, were measured. […]

[5] = tested on: interleukin-6 in the plasma; assay: Concentration of interleukin-6 in plasma of rats with DSS-induced colitis (ELISA); conditions: 8 days DSS, FIG. 4(B)
Method: as §1
as §3, with “With regard to a control group, a normal saline solution was subcutaneously injected into the back of each rat in the same above manner.” left out
The concentration of interleukin-6 in the plasma was measured as an indicator of a systemic inflammatory reaction. That is to say, the blood was centrifuged at 10,000 rpm, and then the concentration of interleukin-6 in the plasma was measured by the ELISA method (Rat IL-6 ELISA KIT, BioSource Europe, S.A., Belgium). […]

[6] = all groups: 1, 5 and 20 mg/kg/day s.c.

Compound: CC1=NN(c2ccccc2)C(=O)C1 [edaravone, 3-methyl-1-phenyl-2-pyrazolin-5-one]
- concentrations of MDA and 4-HNE in the large intestinal mucosa vs control group [1]: lower
- damage score vs control group ([2]; 20 mg/kg/day s.c.): significantly lower
- edema formed in the submucosal layer and infiltration of inflammatory cells (large intestine tissue image) ([2]; 1, 5 and 20 mg/kg/day s.c., hematoxylin-eosin, FIG. 2): suppressed
- damage score vs control group [2, 6]: lower
- myeloperoxidase activity in the large intestinal mucosa vs control group ([3]; 20 mg/kg/day s.c.): significantly lower
- myeloperoxidase activity in the large intestinal mucosa vs control group [3, 6]: lower
- injured mucosa area vs control group ([4]; FIG. 1(B)): significantly smaller
- wet weight of the large intestine vs control group ([4]; divided morning and evening, FIG. 1(A)): significantly lower
- concentration of IL-6 in the plasma vs control group ([5]; 20 mg/kg/day s.c.): significantly lower
- concentration of IL-6 in the plasma vs control group [5, 6]: lower
